From patent US9365588B2, “Benzoxazines as modulators of ion channels” (Vertex Pharmaceuticals Incorporated, priority 2011, dated 2016)

Target: human NaV 1.7 (Homo sapiens, UniProt Q15858)
Test: E-VIPR optical membrane potential assay with electrical stimulation
Assay type: cell-based
Settings: sodium channel inhibition; read-out: Binned Activity Data (IC50)
Method in brief: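 Membrane-potential read-out: background-subtracted 460 nm/580 nm ratio during a 9 s current-controlled stimulus, 400 Hz scan. Before stimulation, NaV1.7-HEK cells carried coumarin/oxonol dye and compound (final DMSO 0.625%) for 20–35 min at room temperature; tetracaine 125 μM served as positive control.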

Sequence of human NaV 1.7 (Q15858 whole entry): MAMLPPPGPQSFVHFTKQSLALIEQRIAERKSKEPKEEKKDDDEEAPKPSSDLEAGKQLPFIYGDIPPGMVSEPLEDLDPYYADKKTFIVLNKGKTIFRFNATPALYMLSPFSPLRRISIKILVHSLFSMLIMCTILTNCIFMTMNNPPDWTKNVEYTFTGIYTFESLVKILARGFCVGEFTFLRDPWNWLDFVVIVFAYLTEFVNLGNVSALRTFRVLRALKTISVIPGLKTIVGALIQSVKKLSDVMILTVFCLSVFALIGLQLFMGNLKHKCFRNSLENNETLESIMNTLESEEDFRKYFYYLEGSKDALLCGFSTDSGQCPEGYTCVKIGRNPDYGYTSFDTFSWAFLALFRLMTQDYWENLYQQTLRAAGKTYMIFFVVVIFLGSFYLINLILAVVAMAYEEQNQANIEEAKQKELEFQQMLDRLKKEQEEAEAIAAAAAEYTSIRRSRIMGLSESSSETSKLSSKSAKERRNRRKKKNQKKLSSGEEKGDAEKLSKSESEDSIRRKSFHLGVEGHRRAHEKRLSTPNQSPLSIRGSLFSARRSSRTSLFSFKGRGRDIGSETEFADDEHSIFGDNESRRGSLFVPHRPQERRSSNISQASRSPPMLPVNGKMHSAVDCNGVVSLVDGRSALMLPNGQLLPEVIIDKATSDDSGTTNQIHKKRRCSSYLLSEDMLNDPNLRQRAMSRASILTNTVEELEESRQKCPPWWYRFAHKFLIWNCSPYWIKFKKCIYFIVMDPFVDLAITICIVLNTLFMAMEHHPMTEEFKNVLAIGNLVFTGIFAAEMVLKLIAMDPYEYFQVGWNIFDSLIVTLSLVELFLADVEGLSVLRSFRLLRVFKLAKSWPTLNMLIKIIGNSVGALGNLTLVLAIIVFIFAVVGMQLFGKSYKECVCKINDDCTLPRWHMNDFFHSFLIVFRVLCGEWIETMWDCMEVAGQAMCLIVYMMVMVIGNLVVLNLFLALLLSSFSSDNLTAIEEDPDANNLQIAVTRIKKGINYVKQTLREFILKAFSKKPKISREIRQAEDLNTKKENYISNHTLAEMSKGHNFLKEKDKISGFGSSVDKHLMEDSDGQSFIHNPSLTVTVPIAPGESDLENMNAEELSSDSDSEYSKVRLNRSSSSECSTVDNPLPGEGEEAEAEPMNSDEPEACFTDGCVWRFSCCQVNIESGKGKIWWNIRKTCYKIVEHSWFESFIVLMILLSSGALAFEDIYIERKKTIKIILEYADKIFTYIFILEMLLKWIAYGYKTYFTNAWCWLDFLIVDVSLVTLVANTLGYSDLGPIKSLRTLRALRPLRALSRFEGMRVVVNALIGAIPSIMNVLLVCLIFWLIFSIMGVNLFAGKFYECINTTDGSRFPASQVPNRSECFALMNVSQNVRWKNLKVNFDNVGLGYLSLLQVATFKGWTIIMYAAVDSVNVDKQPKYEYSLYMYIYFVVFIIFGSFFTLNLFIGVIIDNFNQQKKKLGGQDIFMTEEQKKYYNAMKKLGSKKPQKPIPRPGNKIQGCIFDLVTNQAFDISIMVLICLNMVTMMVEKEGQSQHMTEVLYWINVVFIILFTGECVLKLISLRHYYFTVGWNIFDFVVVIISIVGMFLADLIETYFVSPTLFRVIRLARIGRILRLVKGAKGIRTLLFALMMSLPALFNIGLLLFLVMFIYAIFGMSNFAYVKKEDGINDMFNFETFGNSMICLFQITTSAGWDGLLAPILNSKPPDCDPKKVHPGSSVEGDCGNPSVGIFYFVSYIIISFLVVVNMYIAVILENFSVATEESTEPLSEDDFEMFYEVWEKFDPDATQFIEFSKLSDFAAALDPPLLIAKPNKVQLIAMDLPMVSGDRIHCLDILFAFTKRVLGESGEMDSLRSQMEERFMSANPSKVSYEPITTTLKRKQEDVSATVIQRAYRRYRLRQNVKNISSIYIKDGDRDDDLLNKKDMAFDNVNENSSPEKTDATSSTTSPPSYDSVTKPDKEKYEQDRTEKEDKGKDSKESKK

Row | SMILES | IC50
1 | COc1cc(C(=O)N2CCC3(CC2)Oc2cc(Cl)ccc2-n2cccc23)ccc1OCCOC(F)(F)F [Compound 291] | ≤ 2000 nM
2 | Cn1ncc2c1-c1ccccc1OC21CCN(C(=O)c2ccccc2OC2CCOCC2)CC1 [Compound 292] | ≤ 2000 nM
3 | N#Cc1ccc2n1-c1ccccc1OC21CCN(C(=O)c2ccc(OC[C@@H](O)CO)cc2)CC1 [Compound 293] | ≤ 2000 nM
4 | CC(C)(C)c1ccc(C(=O)N2CCC3(CC2)Oc2ccccc2-n2c(C#N)ccc23)cc1 [Compound 295] | ≤ 2000 nM
5 | CC(C)Oc1ccc(C(=O)N2CCC3(CC2)Oc2ccccc2-n2c3ccc2S(C)(=O)=O)cc1CO [Compound 296] | ≤ 2000 nM
6 | CC(C)S(=O)(=O)c1ccc(C(=O)N2CCC3(CC2)Oc2ccccc2-n2c(C#N)ccc23)cc1 [Compound 297] | ≤ 2000 nM
7 | COCCOc1ccc(C(=O)N2CCC3(CC2)Oc2ccccc2-c2c3ccn2C)cc1OC [Compound 298] | ≤ 2000 nM
8 | COc1cccc(Cl)c1C(=O)N1CCC2(CC1)Oc1ccccc1-c1c2cnn1C [Compound 299] | > 5000 nM
9 | COc1ccc(C(=O)N2CCC3(CC2)Oc2cc(Cl)ccc2-n2c(CO)ccc23)cc1C(F)(F)F [Compound 300] | ≤ 2000 nM
10 | COC[C@@H](C)Oc1ccc(C(=O)N2CCC3(CC2)Oc2cc(F)ccc2-n2cccc23)cc1OC [Compound 303] | ≤ 2000 nM
11 | N#Cc1cc(F)cc(C(=O)N2CCC3(CC2)Oc2cc(Cl)ccc2-n2cccc23)c1 [Compound 304] | ≤ 2000 nM
12 | COCCOc1ccc(C(=O)N2CCC3(CC2)Oc2cc(F)ccc2-n2cccc23)cc1OC [Compound 305] | ≤ 2000 nM
13 | CC(C)Oc1ccc(C(=O)N2CCC3(CC2)Oc2ccccc2-c2c3cnn2C)cc1C#N [Compound 306] | ≤ 2000 nM
14 | COc1cc(C(=O)N2CCC3(CC2)Oc2ccccc2-c2nn(C)cc23)ccc1OC(C)(C)C [Compound 307] | ≤ 2000 nM
15 | CC(C)(O)Cc1ccc(C(=O)N2CCC3(CC2)Oc2ccccc2-n2c(C#N)ccc23)cc1 [Compound 308] | ≤ 2000 nM
16 | Cn1ncc2c1-c1cc(F)ccc1OC21CCN(C(=O)c2ccccc2C(F)F)CC1 [Compound 309] | > 5000 nM
17 | CC(C)Oc1ccc(C(=O)N2CCC3(CC2)Oc2ccccc2-n2c(C#N)ccc23)c(CO)c1 [Compound 310] | ≤ 2000 nM
18 | CC(=O)c1ccc2n1-c1ccccc1OC21CCN(C(=O)c2ccc(S(=O)(=O)C(C)(C)C)cc2)CC1 [Compound 311] | ≤ 2000 nM
19 | COCCOc1cc(F)c(C(=O)N2CCC3(CC2)Oc2cc(F)ccc2-n2cccc23)cc1OC [Compound 312] | ≤ 2000 nM

Row | SMILES | IC50
20 | COc1cc(C(=O)N2CCC3(CC2)Oc2ccccc2-c2c3cnn2C)ccc1OC(C)(C)C [Compound 313] | ≤ 2000 nM
21 | CCc1ccc(C(=O)N2CCC3(CC2)Oc2ccccc2-n2ccc(C)c23)cc1OC [Compound 314] | ≤ 2000 nM
22 | Cc1cc(C(=O)N2CCC3(CC2)Oc2ccccc2-n2ccc(C)c23)ccc1OC(C)C [Compound 315] | ≤ 2000 nM
23 | COc1cc(C(=O)N2CCC3(CC2)Oc2ccccc2-n2ccnc23)ccc1OC(C)C [Compound 316] | ≤ 2000 nM
24 | Cn1ncc2c1-c1ccccc1OC21CCN(C(=O)c2cc3ccccc3n2C)CC1 [Compound 317] | > 5000 nM
25 | CC(C)Oc1ccc(C(=O)N2CCC3(CC2)Oc2ccccc2-n2c(C#N)ccc23)c(F)c1 [Compound 318] | ≤ 2000 nM
26 | Cn1ncc2c1-c1ccccc1OC21CCN(C(=O)c2ccccc2NS(C)(=O)=O)CC1 [Compound 319] | 2000 to 5000 nM
27 | CCn1ncc2c1-c1ccccc1OC21CCN(C(=O)c2ccccc2OC(F)(F)F)CC1 [Compound 321] | ≤ 2000 nM
28 | Cn1ncc2c1-c1ccccc1OC21CCN(C(=O)c2ccnc3ccccc23)CC1 [Compound 322] | 2000 to 5000 nM
29 | CC(C)(N)c1ccc(C(=O)N2CCC3(CC2)Oc2ccccc2-n2c(C#N)ccc23)cc1 [Compound 323] | 2000 to 5000 nM
30 | Cc1nc2ccc(C(=O)N3CCC4(CC3)Oc3ccccc3-c3c4cnn3C)cc2s1 [Compound 324] | > 5000 nM
31 | Cn1cc2c(n1)-c1ccccc1OC21CCN(C(=O)c2ccc3nc(N)sc3c2)CC1 [Compound 325] | 2000 to 5000 nM
32 | CC[C@H](C)Oc1ccc(C(=O)N2CCC3(CC2)Oc2ccccc2-n2cccc23)cc1OC [Compound 326] | ≤ 2000 nM
33 | CC(C)(C)S(=O)(=O)c1ccc(C(=O)N2CCC3(CC2)Oc2ccccc2-n2cccc23)cc1 [Compound 327] | ≤ 2000 nM
34 | COc1c(F)cccc1C(=O)N1CCC2(CC1)Oc1cc(Cl)ccc1-c1c2cnn1C [Compound 328] | ≤ 2000 nM
35 | O=C(c1cccnc1Oc1ccccc1)N1CCC2(CC1)Oc1ccccc1-n1c(C(F)(F)F)ccc12 [Compound 330] | ≤ 2000 nM
36 | Cn1ncc2c1-c1ccccc1OC21CCN(C(=O)c2csc(-c3ccccc3)n2)CC1 [Compound 331] | > 5000 nM
37 | CN(C)CCOc1ccc(C(=O)N2CCC3(CC2)Oc2ccccc2-n2cccc23)cc1C(F)(F)F [Compound 333] | ≤ 2000 nM
38 | CC(C)(Oc1ccc(C(=O)N2CCC3(CC2)Oc2ccccc2-n2c(C#N)ccc23)cc1)C(=O)O [Compound 334] | > 5000 nM

Row | SMILES | IC50
39 | COc1cc(S(=O)(=O)C(C)C)ccc1C(=O)N1CCC2(CC1)Oc1ccccc1-c1c2cnn1C [Compound 336] | ≤ 2000 nM
40 | O=C(c1ccccc1OC(F)F)N1CCC2(CC1)Oc1ccccc1-c1c2cnn1C(F)(F)F [Compound 337] | ≤ 2000 nM
41 | Cc1cc(C(=O)N2CCC3(CC2)Oc2cc(C#N)ccc2-n2cccc23)ccc1OC(C)C [Compound 338] | ≤ 2000 nM
42 | Cn1ncc2c1-c1cc(F)ccc1OC21CCN(C(=O)c2ccccc2OC(F)F)CC1 [Compound 340] | ≤ 2000 nM
43 | O=C(c1ccc(OC(F)F)cc1)N1CCC2(CC1)Oc1ccccc1-n1c(C(F)(F)F)ccc12 [Compound 341] | > 5000 nM
44 | COc1cc(C(=O)N2CCC3(CC2)Oc2ccccc2-n2cccc23)ccc1OC1CCCC1 [Compound 342] | ≤ 2000 nM
45 | N#Cc1ccccc1C(=O)N1CCC2(CC1)Oc1cc(Cl)ccc1-n1cccc12 [Compound 343] | > 5000 nM
46 | Cn1ncc2c1-c1ccccc1OC21CCN(C(=O)c2cccc3c2OC(F)(F)O3)CC1 [Compound 345] | ≤ 2000 nM
47 | Cn1ncc2c1-c1ccccc1OC21CCN(C(=O)c2cccc3c2OCCO3)CC1 [Compound 346] | ≤ 2000 nM
48 | CCc1ccc(C(=O)N2CCC3(CC2)Oc2ccccc2-n2c(C(F)(F)F)ccc23)cc1OC [Compound 347] | ≤ 2000 nM
49 | COc1cc(C(=O)N2CCC3(CC2)Oc2cc(Cl)ccc2-n2cccc23)ccc1O[C@@H]1CCC[C@H]1O [Compound 348] | ≤ 2000 nM
50 | Cc1ccc(C(=O)N2CCC3(CC2)Oc2cc(F)ccc2-n2cccc23)cc1C [Compound 349] | ≤ 2000 nM
51 | Cn1ncc2c1-c1ccccc1OC21CCN(C(=O)c2cccc3c2OC(C)(C)C3)CC1 [Compound 350] | ≤ 2000 nM
52 | CCCOc1ccc(C(=O)N2CCC3(CC2)Oc2ccccc2-n2cccc23)cc1OC [Compound 352] | ≤ 2000 nM
53 | COc1ccc(F)c(F)c1C(=O)N1CCC2(CC1)Oc1ccccc1-c1c2cnn1C [Compound 353] | > 5000 nM
54 | COc1ccc(C(=O)N2CCC3(CC2)Oc2ccccc2-c2c3cnn2C)c(OC)c1OC [Compound 355] | ≤ 2000 nM
55 | CC(=O)c1ccc2n1-c1ccccc1OC21CCN(C(=O)c2ccc(S(C)(=O)=O)c(C)c2)CC1 [Compound 357] | ≤ 2000 nM
56 | COc1ccc(OC)c(C(=O)N2CCC3(CC2)Oc2ccccc2-c2c3cnn2C)c1 [Compound 358] | 2000 to 5000 nM
